Measured values reported in patent US10071099B2, “Medicament for suppressing malignant tumor metastasis” (NATIONAL CEREBRAL AND CARDIOVASCULAR CENTER, priority 2014, dated 2018).

Columns and labels:
[1] = system: mouse melanoma B16-F10; test: Blood-borne lung metastasis model, mouse melanoma tail vein injection (LPS); assay type: in vivo; conditions: for LPS-induced lung metastasis of tumor cells (nodules): 30 mg/kg-day oral from 4 days before LPS, LPS 1 mg/kg tail vein 4 to 5 hours before B16-F10 injection, 14 days after tumor cell injection, C57BL6 mice
Description: Lung Metastasis Suppressing Effect of Medicament in Blood-Borne Metastasis Model Established by Injection of Mouse Melanoma to Mouse Tail Vein (LPS)
Eight-week-old male C57BL6 mice (purchased from Japan SLC, Inc.) were used. Lipopolysaccharide (LPS) in an amount of 1 mg/kg was injected to the tail vein of each mouse, and mouse melanoma B16-F10 was injected to the tail vein 4 to 5 hours later. At this time, mouse melanoma was injected into the tail vein on the different side from the tail vein to which LPS was injected. Mouse melanoma B16-F10 was purchased from ATCC, and cultured in DMEM (Life Technologies Corp.) containing 10% FCS under 5% CO2 at 37° C. The cells in a semiconfluent state were treated with EDTA-trypsin (a 0.01 to 0.125% solution) and then centrifuged. As an angiotensin type 2 receptor agonist, Compounds A to E were used. The cells were suspended in serum free DMEM so as to be 3×10^6 cells/mL for Compound A administration group, and 2×10^6 cells/mL for Compound B to E administration groups. The melanoma cell suspension ([…]) at a density of 3×10^5 cells for Compound A administration group or at a density of […] for Compound B to E administration groups was injected to the tail vein of the mice.
To the angiotensin type 2 receptor agonist group, a 0.5% carboxymethylcellulose aqueous solution (0.2 mg/mL) prepared so as to contain 30 mg/kg-day of the agent (each of Compounds A to E) was orally given from 4 days before the start of the LPS administration to the end of the experiment (14 days after the injection of melanoma cells) in a continuous manner. To the control group, LPS was not injected, and only a 0.5% carboxymethylcellulose aqueous solution not containing the agent (any of Compounds A to E) was orally given for the experiment.
In addition, for the purpose of comparison, an experiment in which LPS was not injected and Compound A was orally administered and an experiment in which LPS was injected and the 0.5% carboxymethylcellulose aqueous solution not containing the agent (any of Compounds A to E) was orally given were performed. […]

[2] = system: mouse melanoma B16-F10; test: Blood-borne lung metastasis model, mouse melanoma tail vein injection (CDDP); assay type: in vivo
Description: Lung Metastasis Suppressing Effect of Medicament in Blood-Borne Metastasis Model Established by Injection of Mouse Melanoma to Mouse Tail Vein (CDDP)
Eight-week-old male C57BL6 mice (purchased from Japan SLC, Inc.) were used. Mouse melanoma B16-F10 was purchased from ATCC, and cultured in Dulbecco's Modified Eagle Medium (DMEM) (Life Technologies Corp.) containing 10% fetal calf serum (FCS) under 5% CO2 at 37° C. The cells in a semiconfluent state were treated with EDTA-trypsin (a 0.01 to 0.125% solution), centrifuged, and then suspended in serum free DMEM so as to be 3×10^6 cells/mL. The melanoma cell suspension (100 μL/mouse, 3×10^5 cells) was injected to the tail vein of the mice.
As pretreatment, 2.5 mg/kg of cisplatin (CDDP) was injected to the tail vein of the mice 2 days before the injection of the melanoma cells into the tail vein.
As an angiotensin type 2 receptor agonist, Compound A was used.
To the angiotensin type 2 receptor agonist group, a 0.5% carboxymethylcellulose aqueous solution prepared so as to contain 30 mg/kg of Compound A was orally given from 4 days before the start of the CDDP administration to the end of the experiment (14 days after the injection of melanoma cells) in a continuous manner.
To the control group, CDDP was not injected, and only a 0.5% carboxymethylcellulose aqueous solution not containing the agent was orally given for the experiment.
In addition, for the purpose of comparison, an experiment in which CDDP was not injected and Compound A was orally administered and an experiment in which CDDP was injected and the 0.5% carboxymethylcellulose aqueous solution not containing the agent (Compound A) was orally given were performed.
The number of animals in each group was n=5.
The lung metastasis of the tumor cells 14 days after the tumor cell injection was observed. […]

SMILES	LPS-induced lung metastasis of tumor cells (nodules) [1]	lung metastasis of tumor cells without LPS administration ([1]; 30 mg/kg-day oral, no LPS, 14 days after B16-F10 tail vein injection)	CDDP-induced exacerbation of the lung metastasis of tumor cells (nodules) ([2]; 30 mg/kg oral from 4 days before CDDP, CDDP 2.5 mg/kg tail vein 2 days before B16-F10 injection, 14 days after tumor cell injection, C57BL6 mice)	lung metastasis of tumor cells without CDDP administration ([2]; 30 mg/kg oral, no CDDP, 14 days after B16-F10 tail vein injection, C57BL6 mice)	effect of cisplatin (CDDP) administration on lung metastasis of tumor cells ([2]; CDDP 2.5 mg/kg tail vein 2 days before B16-F10 injection, 14 days after tumor cell injection)
CCN(CC)C(=O)[C@H](Cc1ccc(NC(=O)c2ccccc2)cc1)C(=O)NS(=O)(=O)c1ccc2ccccc2c1 [Compound A, (2S)-2-[4-(benzoylamino)benzyl]-N,N-diethyl-N′-(2-naphthylsulfonyl)malonamide]	significantly suppressed the lung metastasis of tumor cells	suppresses the lung metastasis of tumor cells	significantly suppressed the CDDP-induced exacerbation of the lung metastasis	capable of suppressing the lung metastasis of tumor cells	
CCN(CC)C(=O)[C@H](Cc1ccc(NC(=O)c2ccc(Cl)cc2N)cc1)C(=O)NS(=O)(=O)c1ccc2ccccc2c1 [Compound E, (2S)-2-{4-[(2-amino-4-chlorobenzoyl)amino]benzyl}-N,N-diethyl-N′-(2-naphthylsulfonyl)malonamide]	significantly suppressed the lung metastasis of tumor cells				
N.N.[Cl][Pt][Cl] [cisplatin (CDDP), cisplatin, reference compound]					augmented the lung metastasis of tumor cells
